Reference: ChEMBL document CHEMBL1138121 (Bioorg Med Chem Lett, 2006)
pIC50: −log10 of the molar value.

target: T1, Glycogen phosphorylase, muscle form (Oryctolagus cuniculus, UniProt P00489); assay: Inhibitory activity against rabbit muscle GPa; assay type: tissue-based, Muscle tissue
T1 sequence (P00489 whole entry): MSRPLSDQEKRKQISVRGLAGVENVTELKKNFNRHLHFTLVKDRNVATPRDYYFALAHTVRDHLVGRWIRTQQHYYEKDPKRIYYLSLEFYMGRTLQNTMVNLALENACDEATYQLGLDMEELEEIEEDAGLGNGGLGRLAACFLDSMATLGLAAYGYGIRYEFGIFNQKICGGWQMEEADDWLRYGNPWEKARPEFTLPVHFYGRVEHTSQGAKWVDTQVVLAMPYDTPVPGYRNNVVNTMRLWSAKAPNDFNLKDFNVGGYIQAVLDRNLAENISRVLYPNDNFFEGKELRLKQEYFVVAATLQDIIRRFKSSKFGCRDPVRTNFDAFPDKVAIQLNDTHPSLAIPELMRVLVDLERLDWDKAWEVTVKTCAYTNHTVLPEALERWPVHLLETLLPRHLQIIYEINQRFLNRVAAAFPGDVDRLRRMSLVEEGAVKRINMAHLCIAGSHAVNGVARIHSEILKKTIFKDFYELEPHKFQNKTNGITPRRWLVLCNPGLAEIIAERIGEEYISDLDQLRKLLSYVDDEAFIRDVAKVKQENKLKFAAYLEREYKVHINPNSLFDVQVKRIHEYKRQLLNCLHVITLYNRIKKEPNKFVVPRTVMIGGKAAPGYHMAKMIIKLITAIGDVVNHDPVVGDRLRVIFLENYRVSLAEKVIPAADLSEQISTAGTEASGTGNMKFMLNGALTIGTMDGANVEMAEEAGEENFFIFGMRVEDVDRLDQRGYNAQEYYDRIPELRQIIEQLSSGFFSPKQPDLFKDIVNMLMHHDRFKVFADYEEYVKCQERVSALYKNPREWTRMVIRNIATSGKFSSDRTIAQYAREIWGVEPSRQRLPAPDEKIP

Row | Compound | pIC50
1 | CC1(C)CC[C@]2(C(=O)OCCBr)CC[C@]3(C)C(=CC[C@@H]4[C@@]5(C)C[C@@H](O)[C@H](O)C(C)(C)[C@@H]5CC[C@]43C)[C@@H]2C1 | 4.30
2 | CC1(C)CC[C@]2(C(=O)OCCN3CCCCC3)CC[C@]3(C)C(=CC[C@@H]4[C@@]5(C)C[C@@H](O)[C@H](O)C(C)(C)[C@@H]5CC[C@]43C)[C@@H]2C1 | 4.51
3 | CC(=O)O[C@@H]1C[C@]2(C)[C@H]3CC=C4[C@@H]5CC(C)(C)CC[C@]5(C(=O)OCc5ccccc5)CC[C@@]4(C)[C@]3(C)CC[C@H]2C(C)(C)C1=O | 4.54
4 | CC(=O)O[C@@H]1C[C@]2(C)[C@H]3CC=C4[C@@H]5CC(C)(C)CC[C@]5(C(=O)OCc5ccccc5)CC[C@@]4(C)[C@]3(C)CC[C@H]2C(C)(C)[C@H]1O | 4.10
5 | CC1(C)CC[C@]2(C(=O)OCCCCN3CCCCC3)CC[C@]3(C)C(=CC[C@@H]4[C@@]5(C)C[C@@H](O)[C@H](O)C(C)(C)[C@@H]5CC[C@]43C)[C@@H]2C1 | 3.24
6 | CC1(C)CC[C@]2(C(=O)OCC(=O)O)CC[C@]3(C)C(=CC[C@@H]4[C@@]5(C)C[C@@H](O)[C@H](O)C(C)(C)[C@@H]5CC[C@]43C)[C@@H]2C1 | 2.78
7 | CC1(C)CC[C@]2(C(=O)OCc3ccccc3)CC[C@]3(C)C(=CC[C@@H]4[C@@]5(C)C[C@@H](O[Si](C)(C)C(C)(C)C)[C@@H](O)C(C)(C)[C@@H]5CC[C@]43C)[C@@H]2C1 | 3.24
8 | CCOC(=O)COC(=O)[C@]12CCC(C)(C)C[C@H]1C1=CC[C@@H]3[C@@]4(C)C[C@@H](O)[C@H](O)C(C)(C)[C@@H]4CC[C@@]3(C)[C@]1(C)CC2 | 4.72
9 | CC1(C)CC[C@]2(C(=O)OCc3ccccc3)CC[C@]3(C)C(=CC[C@@H]4[C@@]5(C)C[C@@H](O[Si](C)(C)C(C)(C)C)[C@H](O)C(C)(C)[C@@H]5CC[C@]43C)[C@@H]2C1 | 2.77

Results, then the compound that gave them:

Row | pIC50 | Compound
10 | 3.82 | CC1(C)CC[C@]2(C(=O)OCCO)CC[C@]3(C)C(=CC[C@@H]4[C@@]5(C)C[C@@H](O)[C@H](O)C(C)(C)[C@@H]5CC[C@]43C)[C@@H]2C1
11 | 4.37 | CC1(C)CC[C@]2(C(=O)OCCN3CCOCC3)CC[C@]3(C)C(=CC[C@@H]4[C@@]5(C)C[C@@H](O)[C@H](O)C(C)(C)[C@@H]5CC[C@]43C)[C@@H]2C1
12 | 4.21 | CCN(CC)CCCCOC(=O)[C@]12CCC(C)(C)C[C@H]1C1=CC[C@@H]3[C@@]4(C)C[C@@H](O)[C@H](O)C(C)(C)[C@@H]4CC[C@@]3(C)[C@]1(C)CC2
13 | 4.18 | CC1(C)CC[C@]2(C(=O)OCn3cccn3)CC[C@]3(C)C(=CC[C@@H]4[C@@]5(C)C[C@@H](O)[C@H](O)C(C)(C)[C@@H]5CC[C@]43C)[C@@H]2C1
14 | 3.92 | CC1(C)CC[C@]2(C(=O)OCCCCN3CCOCC3)CC[C@]3(C)C(=CC[C@@H]4[C@@]5(C)C[C@@H](O)[C@H](O)C(C)(C)[C@@H]5CC[C@]43C)[C@@H]2C1
15 | 4.20 | CC(=O)O[C@@H]1C[C@]2(C)[C@H]3CC=C4[C@@H]5CC(C)(C)CC[C@]5(C(=O)OCc5ccccc5)CC[C@@]4(C)[C@]3(C)CC[C@H]2C(C)(C)[C@@H]1O
16 | 3.41 | COC(=O)[C@]12CCC(C)(C)C[C@H]1C1=CC[C@@H]3[C@@]4(C)C[C@@H](O)[C@H](O)C(C)(C)[C@@H]4CC[C@@]3(C)[C@]1(C)CC2 [MASLINIC ACID METHYL ESTER]
17 | 4.54 | CC1(C)CC[C@]2(C(=O)OCc3ccccc3)CC[C@]3(C)C(=CC[C@@H]4[C@@]5(C)C[C@@H](O)C(=O)C(C)(C)[C@@H]5CC[C@]43C)[C@@H]2C1
18 | 4.52 | CC1(C)CC[C@]2(C(=O)OCc3ccccc3)CC[C@]3(C)C(=CC[C@@H]4[C@@]5(C)C=C(O)C(=O)C(C)(C)[C@@H]5CC[C@]43C)[C@@H]2C1
19 | 4.18 | CC1(C)CC[C@]2(C(=O)OCc3ccccc3)CC[C@]3(C)C(=CC[C@@H]4[C@@]5(C)C[C@@H](O)[C@@H](O)C(C)(C)[C@@H]5CC[C@]43C)[C@@H]2C1
20 | 4.29 | CCN(CC)CCOC(=O)[C@]12CCC(C)(C)C[C@H]1C1=CC[C@@H]3[C@@]4(C)C[C@@H](O)[C@H](O)C(C)(C)[C@@H]4CC[C@@]3(C)[C@]1(C)CC2
21 | 5.15 | CC1(C)CC[C@]2(C(=O)OCCCCBr)CC[C@]3(C)C(=CC[C@@H]4[C@@]5(C)C[C@@H](O)[C@H](O)C(C)(C)[C@@H]5CC[C@]43C)[C@@H]2C1
